≈ marks a conversion by molar mass, not a printed value. Read-outs that look alike come from different tables or passages of the source. Starred links: 1 amine or outer side, 2 acyl side, 3 side chain; linkers in the order of their positions; H or OH if unused. Positions of bridges follow the written chain, without caps; N, C: chain ends. Residues, ends and D or L forms follow the SMILES beside them. Groups on a side chain read outwards from the residue. *: point of attachment. C20 diacid = O=C(O)CCCCCCCCCCCCCCCCCCC(=O)*; γGlu = O=C(O)[C@H](CCC(=O)[*:2])N[*:1]; AEEA = NCCOCCOCC(=O)O
Test: Assay (IV) determination of solubility
Assay type: physicochemical
Experimental: ASSAY (IV)—Determination of Solubility
The polypeptide was dissolved in water at ˜500 nmol/ml and mixed 1:1 with a series of buffers (100 mM glycylglycine pH 3.0, 100 mM glycylglycine pH 4.0, 100 mM glycylglycine pH 5.0, 100 mM bistrispropane pH 6.0, 100 mM bistrispropane pH 6.5, 100 mM bistrispropane pH 7.0, 100 mM bistrispropane pH 7.5, 100 mM bistrispropane pH 8.0). After 18 hours at room temperature the samples were centrifuged and the polypeptide concentration determined by HPLC.

[1] = pH 3, pH 3.0, read-out: Solubility pH 3.0
[2] = pH 4, pH 4.0, 18 hours at room temperature, Table 2, read-out: Solubility pH 4.0
[3] = pH 4, pH 4.0, read-out: Solubility pH 4.0
[4] = pH 5, pH 5.0, read-out: Solubility pH 5.0
[5] = pH 6, pH 6.0, read-out: Solubility pH 6.0
[6] = pH 6.5, pH 6.5, read-out: Solubility pH 6.5
[7] = pH 7, pH 7.0, read-out: Solubility pH 7.0
[8] = pH 7.5, pH 7.5, read-out: Solubility pH 7.5
[9] = pH 8, pH 8.0, read-out: Solubility pH 8.0

Row | SMILES | solubility [1] [µM] | solubility [2] [µM] | solubility [3] [µM] | solubility [4] [µM] | solubility [5] [µM] | solubility [6] [µM] | solubility [7] [µM] | solubility [8] [µM] | solubility [9] [µM]
1 | CC[C@H](C)[C@H](NC(=O)[C@@H]1CCCN1C(=O)CNC(=O)[C@H](Cc1ccccc1)NC(=O)[C@H](CC(N)=O)NC(=O)[C@H](CCCCNC(=O)COCCOCCNC(=O)COCCOCCNC(=O)CC[C@H](NC(=O)CCCCCCCCCCCCCCCCCCC(=O)O)C(=O)O)NC(=O)[C@H](CO)NC(=O)[C@H](CO)NC(=O)[C@H](CCCNC(=N)N)NC(=O)[C@H](Cc1c[nH]cn1)NC(=O)[C@H](CC(C)C)NC(=O)[C@H](Cc1ccccc1)NC(=O)[C@H](CCC(=O)O)NC(=O)[C@H](C)NC(=O)[C@H](CC(C)C)NC(=O)[C@H](CCCNC(=N)N)NC(=O)[C@H](CCC(N)=O)NC(=O)[C@@H](NC(=O)[C@H](C)NC(=O)[C@@H]1CSSC[C@H](NC(=O)[C@@H](N)CCCNC(=N)N)C(=O)N[C@@H](CC(N)=O)C(=O)N[C@@H]([C@@H](C)O)C(=O)N[C@@H](C)C(=O)N[C@@H]([C@@H](C)O)C(=O)N1)[C@@H](C)O)C(=O)N[C@@H](CC(C)C)C(=O)N1CCC[C@H]1C(=O)N1CCC[C@H]1C(=O)N[C@H](C(=O)N[C@@H](CC(N)=O)C(=O)N[C@H](C(=O)NCC(=O)N[C@@H](CO)C(=O)N[C@@H](CC(N)=O)C(=O)N[C@H](C(=O)N[C@@H](Cc1ccc(O)cc1)C(N)=O)[C@@H](C)O)C(C)C)[C@@H](C)O [Example 14, N-epsilon21-[2-(2-{2-[2-(2-{2-[(S)-4-Carboxy-4-(19-carboxyheptadecanoylamino)butyrylamino]ethoxy}ethoxy)acetylamino]ethoxy}ethoxy)acetyl]-[Arg1,Glu14,His17,Arg18,Lys21]-pramlintide] (H-RCNTATCATQRLAEFLHRSSK([AEEA-AEEA-γGlu-C20 diacid])NFGPILPPTNVGSNTY-NH2; disulfide 2-7) | > 200 | > 200 | > 200 | > 200 | 192 (≈ 923 µg/mL) | 102 (≈ 490 µg/mL) | 13 (≈ 62.5 µg/mL) | 7 (≈ 33.7 µg/mL) | 47 (≈ 226 µg/mL)
2 | CC[C@H](C)[C@H](NC(=O)[C@@H]1CCCN1C(=O)CNC(=O)[C@H](Cc1ccccc1)NC(=O)[C@H](CC(N)=O)NC(=O)[C@H](CO)NC(=O)[C@H](CO)NC(=O)[C@H](CO)NC(=O)[C@H](Cc1c[nH]cn1)NC(=O)[C@H](Cc1c[nH]cn1)NC(=O)[C@H](CC(C)C)NC(=O)[C@H](Cc1ccccc1)NC(=O)[C@H](CCC(=O)O)NC(=O)[C@H](C)NC(=O)[C@H](CC(C)C)NC(=O)[C@H](CCCNC(=N)N)NC(=O)[C@H](CCC(N)=O)NC(=O)[C@@H](NC(=O)[C@H](C)NC(=O)[C@@H]1CSSC[C@H](NC(=O)[C@H](CCCCN)NC(=O)COCCOCCNC(=O)COCCOCCNC(=O)CC[C@H](NC(=O)CCCCCCCCCCCCCCCCCCC(=O)O)C(=O)O)C(=O)N[C@@H](CC(N)=O)C(=O)N[C@@H]([C@@H](C)O)C(=O)N[C@@H](C)C(=O)N[C@@H]([C@@H](C)O)C(=O)N1)[C@@H](C)O)C(=O)N[C@@H](CC(C)C)C(=O)N1CCC[C@H]1C(=O)N1CCC[C@H]1C(=O)N[C@H](C(=O)N[C@@H](CC(N)=O)C(=O)N[C@H](C(=O)NCC(=O)N[C@@H](CO)C(=O)N[C@@H](Cc1c[nH]cn1)C(=O)N[C@H](C(=O)N[C@@H](Cc1ccc(O)cc1)C(N)=O)[C@@H](C)O)C(C)C)[C@@H](C)O [Example 118, N-alpha-[2-(2-{2-[2-(2-{2-[(S)-4-Carboxy-4-(19-carboxyheptadecanoylamino)butyrylamino]ethoxy}ethoxy)acetylamino]ethoxy}ethoxy)acetyl]-[Glu14,His17,Ser21,His35]-pramlintide] ({C20 diacid-γGlu-AEEA-AEEA}-KCNTATCATQRLAEFLHHSSSNFGPILPPTNVGSHTY-NH2; disulfide 2-7) | > 200 | > 200 | > 200 | > 200 | > 200 | 105 (≈ 498 µg/mL) | 37 (≈ 175 µg/mL) | 57 (≈ 270 µg/mL) | 117 (≈ 555 µg/mL)

Source: patent publication US8722849B2, “Polypeptides” (Novo Nordisk A/S, priority 2011, dated 2014)
